Source: US9079866B2, “Flap modulators” (JANSSEN PHARMACEUTICA NV, priority 2013, dated 2015)
Counter-ions that a name gives are not always drawn. Like-named read-outs stand apart in the source and are kept apart here.

Tests used:
[1] = target: human FLAP (Homo sapiens (Human), UniProt P20292); assay: FLAP binding assay (HTRF format)
Summary of the method: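 Reported data take the mean of two different plates carrying duplicate samples and use the HTRF ratio as the measured signal.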

[2] = test system: leukotriene pathway in human whole blood (LTB4 levels); assay: Human whole blood assay (A23187-stimulated LTB4); type: cell-based; details: read-out: LTB4 IC50 1:1
Summary of the method: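 Compounds are pre-incubated 15 min at 37° Celsius in RPMI-diluted (1:1) heparinised whole blood before a 30 min A23187 stimulus (7 μg/mL). Plasma LTB4 is read by immunoassay kit, with IC50 calculated from a 4-parameter equation.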

[3] = human FLAP wild type, HTRF format, average of two plates, duplicates
[4] = Homo sapiens, human whole blood diluted 1:1 in RPMI, A23187-stimulated LTB4
[5] = Homo sapiens, human whole blood diluted 1:1, A23187-stimulated
[6] = read-out: FLAP Binding wild type HTRF Ki

Sequence of human FLAP (P20292 whole entry): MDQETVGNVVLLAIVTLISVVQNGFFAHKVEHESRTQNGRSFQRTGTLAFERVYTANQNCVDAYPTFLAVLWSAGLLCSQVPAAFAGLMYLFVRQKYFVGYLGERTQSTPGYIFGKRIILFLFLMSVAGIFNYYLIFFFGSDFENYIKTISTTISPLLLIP

| SMILES | Ki [1, 3] [µM] | IC50 [2, 4] [µM] | Ki ([1]; wild type FLAP, HTRF format) [µM] | IC50 [2, 5] [µM] | also measured |
| --- | --- | --- | --- | --- | --- |
| Nc1cnc(-c2ccc(-c3ccccc3S(=O)(=O)N3CCCCCC3)cc2F)cn1 [Example 53, 5-[2′-(Azepan-1-ylsulfonyl)-3-fluorobiphenyl-4-yl]pyrazin-2-amine] | 0.003 | 0.238 |  |  |  |
| Nc1cnc(-c2ccc(-c3ccccc3S(=O)(=O)N3CCN(CCO)CC3)cc2F)cn1 [Example 59, 2-(4-{[4′-(5-Aminopyrazin-2-yl)-3′-fluorobiphenyl-2-yl]sulfonyl}piperazin-1-yl)ethanol] | 0.02 | 1.02 |  |  |  |
| Nc1cnc(-c2ccc(-c3ccccc3S(=O)(=O)N(CCO)C3CCCCC3)cc2F)cn1 [Example 136, 4′-(5-Aminopyrazin-2-yl)-N-cyclohexyl-3′-fluoro-N-(2-hydroxyethyl)biphenyl-2-sulfonamide] | 0.001 | 0.015 |  |  |  |
| CC(C)(O)CNS(=O)(=O)c1ccccc1-c1ccc(-c2cnc(N)cn2)c(F)c1 [Example 101, 4′-(5-Aminopyrazin-2-yl)-3′-fluoro-N-(2-hydroxy-2-methylpropyl)biphenyl-2-sulfonamide] | 0.002 | 0.014 |  |  |  |
| Nc1cnc(-c2ccc(-c3ccccc3S(=O)(=O)N3CCN(C4CC4)CC3)cc2F)cn1 [Example 60, 5-{2′-[(4-Cyclopropylpiperazin-1-yl)sulfonyl]-3-fluorobiphenyl-4-yl}pyrazin-2-amine] | 0.028 | 0.464 |  |  |  |
| C[C@@H](NS(=O)(=O)c1ccccc1-c1ccc(-c2cnc(N)cn2)c(F)c1)C(F)(F)F [Example 20, (S)-4′-(5-Aminopyrazin-2-yl)-3′-fluoro-N-[(1S)-2,2,2-trifluoro-1-methylethyl]biphenyl-2-sulfonamide] | 0.001 |  |  |  | IC50 ([2]; human whole blood diluted 1:1 in RPMI, A23187-stimulated LTB4): 0.009 µM |
| Nc1cnc(-c2ccc(-c3ccccc3S(=O)(=O)N3C[C@H](O)[C@@H](O)C3)cc2F)cn1 (relative stereo) [Example 106, (trans)-1-{[4′-(5-Aminopyrazin-2-yl)-3′-fluorobiphenyl-2-yl]sulfonyl}pyrrolidine-3,4-diol] | 0.019 | > 1 |  |  |  |
| Nc1ncc(-c2ccc(-c3ccccc3S(=O)(=O)N[C@H]3CCNC3=O)cc2F)cn1 [Example 263, 4′-(2-Aminopyrimidin-5-yl)-3′-fluoro-N-[(3S)-2-oxopyrrolidin-3-yl]biphenyl-2-sulfonamide] | 0.169 | 0.207 |  |  |  |
| CCN(CC)S(=O)(=O)c1ccccc1-c1ccc(-c2ccc(N)nc2)c(F)c1 [Example 343, 4′-(6-Aminopyridin-3-yl)-N,N-diethyl-3′-fluoro-[1,1′-biphenyl]-2-sulfonamide] | 0.004 | 0.057 |  |  |  |
| Nc1cnc(-c2ccc(-c3cccnc3OC3CCCC3)cc2F)cn1 [Example 402, 5-{4-[2-(Cyclopentyloxy)pyridin-3-yl]-2-fluorophenyl}pyrazin-2-amine] |  |  | 0.092 | 0.522 |  |
| C[C@H](O)CNS(=O)(=O)c1ccccc1-c1ccc(-c2cnc(N)nc2)c(F)c1 [Example 279, 4′-(2-Aminopyrimidin-5-yl)-3′-fluoro-N-[(2S)-2-hydroxypropyl]biphenyl-2-sulfonamide trifluoroacetic acid salt] | 0.07 | 0.149 |  |  |  |
| Nc1cnc(-c2ccc(-c3ccccc3S(=O)(=O)N3CCC(c4c[nH]cn4)CC3)cc2F)cn1 [Example 164, 5-(3-Fluoro-2′-{[4-(1H-imidazol-4-yl)piperidin-1-yl]sulfonyl}biphenyl-4-yl)pyrazin-2-amine] | 0.001 | 0.333 |  |  |  |
| C[C@H](CO)NS(=O)(=O)c1ccccc1-c1ccc(-c2cnc3[nH]ccc3c2)c(F)c1 [Example 363, 3′-Fluoro-N-[(1R)-2-hydroxy-1-methylethyl]-4′-(1H-pyrrolo[2,3-b]pyridin-5-yl)biphenyl-2-sulfonamide] | 0.001 | 0.184 |  |  |  |
| Nc1cnc(-c2ccc(-c3ccccc3CS(=O)(=O)N[C@H]3CC[C@H](O)CC3)cc2F)cn1 [Example 226, 1-[4′-(5-Aminopyrazin-2-yl)-3′-fluorobiphenyl-2-yl]-N-(trans-4-hydroxycyclohexyl)-methanesulfonamide formic acid salt] |  | 0.329 |  |  | Ki [1, 6]: 0.211 µM |
| Nc1cnc(-c2ccc(-c3ccccc3Sc3nccc(N)n3)cc2F)cn1 [Example 216, 2-{[4′-(5-Aminopyrazin-2-yl)-3′-fluorobiphenyl-2-yl]sulfanyl}pyrimidin-4-amine hydrochloride] |  | 0.016 |  |  | Ki [1, 6]: 0.002 µM |
| CN([C@H]1CCCNC1)S(=O)(=O)c1ccccc1-c1ccc(-c2cnc(N)nc2)c(F)c1 [Example 256, 4′-(2-Aminopyrimidin-5-yl)-3′-fluoro-N-methyl-N-[(3S)-piperidin-3-yl]biphenyl-2-sulfonamide] | 0.035 | 0.073 |  |  |  |
| C[C@H]1CNCCN1S(=O)(=O)c1ccccc1-c1ccc(-c2cnc(N)cn2)c(F)c1 [Example 144, (S)-5-(3-Fluoro-2′-((2-methylpiperazin-1-yl)sulfonyl)-[1,1′-biphenyl]-4-yl)pyrazin-2-amine] | 0.015 | 0.097 |  |  |  |
| Nc1cnc(-c2ccc(-c3ccccc3S(=O)(=O)N[C@@H](c3ccccc3)C(F)(F)F)cc2F)cn1 [Example 19, (S)-4′-(5-Aminopyrazin-2-yl)-3′-fluoro-N-[(1S)-2,2,2-trifluoro-1-phenylethyl]biphenyl-2-sulfonamide] | 0.002 | 0.05 |  |  |  |
| CN([C@H]1CCCNC1)S(=O)(=O)c1ccccc1-c1ccc(-c2cnc(N)cn2)c(F)c1 [Example 115, (S)-4′-(5-Aminopyrazin-2-yl)-3′-fluoro-N-methyl-N-piperidin-3-ylbiphenyl-2-sulfonamide] | 0.004 | 0.108 |  |  |  |
| Nc1ncc(-c2ccc(-c3ccccc3S(=O)(=O)N[C@@H]3CCCNC3=O)cc2F)cn1 [Example 266, 4′-(2-Aminopyrimidin-5-yl)-3′-fluoro-N-[(3R)-2-oxopiperidin-3-yl]biphenyl-2-sulfonamide trifluoroacetic acid salt] |  | 0.464 |  |  | Ki [1, 6]: 0.184 µM |

Now from value to molecule, other results behind:

| Ki [1, 3] [µM] | IC50 [2, 4] [µM] | Ki ([1]; wild type FLAP, HTRF format) [µM] | IC50 [2, 5] [µM] | SMILES | also measured |
| --- | --- | --- | --- | --- | --- |
|  |  | 0.0437 | 0.366 | N#Cc1ccc(Oc2ccccc2-c2ccc(-c3cnc(N)nc3)c(F)c2)nc1 [Example 627, 6-{[4′-(2-Aminopyrimidin-5-yl)-3′-fluorobiphenyl-2-yl]oxy}pyridine-3-carbonitrile] |  |
|  |  | 0.005 | 0.034 | Nc1cnc(-c2ccc(-c3ccccc3Oc3nccc(N)n3)cc2F)cn1 [Example 528, 2-{[4′-(5-Aminopyrazin-2-yl)-3′-fluorobiphenyl-2-yl]oxy}pyrimidin-4-amine] |  |
|  |  | 0.0046 | 0.0263 | Nc1cnc(Sc2ccccc2-c2ccc(-c3cnc(N)cn3)c(F)c2)cn1 [Example 741, 5-{[4′-(5-Aminopyrazin-2-yl)-3′-fluorobiphenyl-2-yl]sulfanyl}pyrazin-2-amine] |  |
|  |  | 0.048 | 0.139 | O=C(c1ccccc1-c1ccc(-c2cnc3[nH]ccc3n2)c(F)c1)N1CCOCC1 [Example 500, 2-[3-Fluoro-2′-(morpholin-4-ylcarbonyl)biphenyl-4-yl]-5H-pyrrolo[2,3-b]pyrazine] |  |
|  |  | 0.74 | 3.55 | Nc1ncc(-c2ccc(-c3ccccc3S(=O)(=O)N3CCNC(=O)C3)cn2)cn1 [Example 687, 4-({2-[6-(2-Aminopyrimidin-5-yl)pyridin-3-yl]phenyl}sulonyl)piperazin-2-one] |  |
|  |  | 0.443 | 0.47 | C[C@H](CO)NC(=O)c1ccccc1-c1ccc(-c2cnc(N)cn2)c(F)c1 [Example 512, 4′-(5-Aminopyrazin-2-yl)-3′-fluoro-N-[(1R)-2-hydroxy-1-methylethyl]biphenyl-2-carboxamide] |  |
|  |  | 0.134 | 0.101 | C[C@@H](O)CNS(=O)(=O)c1ccccc1-c1cnc(-c2cnc(N)nc2)c(F)c1 [Example 673, 2-[6-(2-Aminopyrimidin-5-yl)-5-fluoropyridin-3-yl]-N-[(2R)-2-hydroxypropyl]benzenesulfonamide] |  |
|  |  | 0.334 | 1.49 | C[C@@H](NS(=O)(=O)c1ccccc1-c1ccc(-c2cnc(N)nc2)nc1)C(F)(F)F [Example 686, 2-[6-(2-Aminopyrimidin-5-yl)pyridin-3-yl]-N-[(1R)-2,2,2-trifluoro-1-methylethyl]benzenesulfonamide trifluoroacetic acid salt] |  |
|  |  | 0.015 | 0.215 | CCS(=O)(=O)Nc1ccccc1-c1ccc(-c2cnc3[nH]ccc3n2)c(F)c1 [Example 491, N-[3′-Fluoro-4′-(5H-pyrrolo[2,3-b]pyrazin-2-yl)biphenyl-2-yl]ethanesulfonamide] |  |
|  |  | 0.014 | 0.092 | CCN(CC)C(=O)c1ccccc1-c1ccc(-c2cnc(N)cn2)c(F)c1 [Example 503, 4′-(5-Aminopyrazin-2-yl)-N,N-diethyl-3′-fluorobiphenyl-2-carboxamide] |  |
|  |  | 0.005 | 0.095 | Nc1ncc(-c2ccc(-c3ccc(C(F)(F)F)cc3Oc3ccnc(N)n3)cc2F)cn1 [Example 560, 4-{[4′-(2-Aminopyrimidin-5-yl)-3′-fluoro-4-(trifluoromethyl)biphenyl-2-yl]oxy}pyrimidin-2-amine] |  |
|  |  | 0.001 | 0.008 | Cc1nc(-c2ccc(-c3ccccc3S(=O)(=O)NC(C)(C)C)cc2F)cnc1N [Example 445, 4′-(5-Amino-6-methylpyrazin-2-yl)-N-tert-butyl-3′-fluorobiphenyl-2-sulfonamide] |  |
|  |  | 0.074 | 0.183 | Nc1ncc(-c2ccc(-c3ccccc3Oc3ncccn3)cc2F)cn1 [Example 527, 5-[3-Fluoro-2′-(pyrimidin-2-yloxy)biphenyl-4-yl]pyrimidin-2-amine] |  |
